According to patent publication EP3838286B1, “ANTIMICROBIAL PEPTIDE FROM POLISTES GALLICUS VENOM AND ITS ANALOGS” (Latoxan, priority 2019, dated 2021):
In brackets after ≈: the same amount, converted by molar mass. Like-named read-outs stand apart in the source and are kept apart here. Square brackets hold non-standard residues; d marks the D form. Ends that are not written are not given here. Peptide text beside a SMILES is read from it.

Assays:
human erythrocytes = assay: Hemolytic activity assay; format: cell-based
Experimental: The hemolytic activity of each peptide was determined by the leakage of hemoglobin from human erythrocytes (obtained from Divbioscience, NL) as previously described (Oyama et al., 2017 Biofilms Microbiomes, Dec 1;3:33).
Briefly, human erythrocytes were washed 3 times with phosphate buffer saline (PBS) and concentrated using centrifugation at 800 g for 5 min. Human erythrocytes were then resuspended in PBS at a final concentration of 8 %. 100 µl of human erythrocytes were then added per well of sterile 96 well microplate already containing 15 µl of serially diluted antimicrobials (1:2 in distilled water). After 1 h at 37°C, the microplate was centrifuged at 800 g for 5 min. 100 µl were then carefully collected and transferred to a new 96 well microplate and OD was measured at 405 nm. Hemolysis caused by peptides was expressed as percentage of hemolysis; Triton-X100 at 0.1 % (v:v) was used as positive control and gave 100 % hemolysis. Hemolysis rate was determined as below: Hemolysis rate (%) = (A−A2)/(A1−A2) × 100% [formula] where A is the absorbance of indicator mixtures with different factors, A1 and A2 are the positive control, and the negative control, respectively.

[1] = system: B. subtilis (Nisin-resistant)
M. smegmatis = settings: 72 h
[2] = Cytotoxicity assay (resazurin); format: cell-based; settings: human
Experimental: Normal human cells used were BEAS-2B (ATCC CRL-9609), IMR-90 (ATCC CCL-186) and Human Umbilical Vein Endothelial Cells (HUVEC) (from Sigma-Aldrich) corresponding respectively to human normal lung epithelial, normal lung fibroblast cells and human normal endothelial cells. All cells except HUVEC cells were cultured in Dulbecco's modified essential medium (DMEM) supplemented with 10% fetal calf serum (FCS), 1% L-glutamine and 1% antibiotics (all from Invitrogen). HUVEC cells were cultured in specific endothelial media (from Sigma Aldrich). Cells were seeded onto […] maintained in a 5% CO2 incubator at 37 °C. Cells grown on 25 cm^2 flasks were detached using trypsin-EDTA solution (from Thermofisher), counted using Mallassez counting chamber and seeded into 96-well cell culture plates (Greiner bio-one) at approximately 10,000 cells per well. The cells were left to grow for 48-72 h at 37 °C in a 5% CO2 incubator until they reached confluence. Plates were then aspirated and increasing concentrations of peptides diluted in culture media were added to the cells for 48 h at 37 °C in a 5% CO2 incubator. At the end of the incubation, wells were emptied and cell viability was evaluated using Resazurin based in vitro toxicity assay kit (from Sigma-Aldrich) following manufacturer's instructions. Briefly, Resazurin stock solution was diluted 1:10 in sterile PBS containing calcium and magnesium (PBS, pH 7.4) and empty wells were filled with 100 µL of the diluted solution. After 4 h incubation at 37 °C, fluorescence intensity was measured using microplate reader (Synergy Mx, Biotek) with an excitation wavelength of 530 nm and an emission wavelength of 590 nm. The fluorescence values were normalized by the controls (buffer treated cells) and expressed as percent viability. The IC50 values of peptides on cell viability (i.e. the concentration of derivative causing a reduction of 50% of cell viability) were determined using GraphPad® Prism 7 software. t-Test and two way ANOVA analyses were used to address the significant differences between mean values with significance set at p < 0.05.

[3] = BEAS-2B normal lung epithelial cells, normal lung epithelium, read-out: Cytotoxicity IC50 (µM) BEAS
[4] = HUVEC (human umbilical vein endothelial cells), normal endothelium, read-out: Cytotoxicity IC50 (µM) HUVEC
[5] = IMR-90 normal lung fibroblast cells, read-out: Cytotoxicity IC50 (µM) IMR90

RLLGLWLW-NH2 [LTX-gallicune-2 (R1W8)]
MHC50 (human erythrocytes; human erythrocytes, 50% lysis): 225 µM | MHC100 (human erythrocytes; human erythrocytes, 100% lysis): 1000 µM | times less toxic (hemotoxic) than Gallicus-CP (human erythrocytes; human erythrocytes, Fig 3): 20 times

ILSAILGLL-NH2 [Peptides I1L9]
MIC (µM) B. subtilis (B. subtilis): 100 µM | MIC (µM) S. aureus (S. aureus): 100 µM

ILKAIKKLLK-NH2 [I1K10*]
hemotoxicity: no toxicity towards red blood cells up to (human erythrocytes; highest concentration tested): > 10 mM

CC[C@@H](C)[C@@H](N)C(=O)N[C@@H](CC(C)C)C(=O)N[C@@H](CCCCN)C(=O)N[C@@H](C)C(=O)N[C@H](C(=O)N[C@@H](CCCCN)C(=O)N[C@@H](CCCCN)C(=O)N[C@@H](CC(C)C)C(=O)N[C@@H](CC(C)C)C(=O)N[C@H](CCCCN)C(N)=O)[C@@H](C)CC [i1k10*] (H-[dI]LKAIKKLL[dK]-NH2)
MBC (µM) C. farmeri (C. farmeri): 3.12 µM (≈ 3.64 µg/mL) | MIC (µM) C. farmeri (C. farmeri): 3.12 µM (≈ 3.64 µg/mL) | MBC (µM) B. subtilis (Nisin-resistant) [1]: 3.12 µM (≈ 3.64 µg/mL) | MIC (µM) B. subtilis (Nisin-resistant) [1]: 3.12 µM (≈ 3.64 µg/mL) | MBC (µM) P. aeruginosa 01 (P. aeruginosa 01): 12.5 µM (≈ 14.6 µg/mL) | MIC (µM) P. aeruginosa 01 (P. aeruginosa 01): 3.125 µM (≈ 3.65 µg/mL) | MIC (µM) M. smegmatis (M. smegmatis): 12.5 µM (≈ 14.6 µg/mL) | MIC (µM) E. coli (E. coli): 50 µM (≈ 58.3 µg/mL) | MBC (µM) E. coli EHEC K88 (E. coli EHEC K88): 6.25 µM (≈ 7.29 µg/mL) | MIC (µM) E. coli EHEC K88 (E. coli EHEC K88): 6.25 to 12.5 µM | MBC (µM) P. aeruginosa (P. aeruginosa): 1.5 µM (≈ 1.75 µg/mL) | MIC PA (P. aeruginosa): 0.78 µM (≈ 0.91 µg/mL) | MBC (µM) A. gandavensis (A. gandavensis): 0.78 µM (≈ 0.91 µg/mL) | MIC (µM) A. gandavensis (A. gandavensis): 0.78 µM (≈ 0.91 µg/mL) | MBC (µM) C. rodentium (C. rodentium): 12.5 µM (≈ 14.6 µg/mL) | MIC (µM) C. rodentium (C. rodentium): 12.5 µM (≈ 14.6 µg/mL) | MBC (µM) H. pylori (H. pylori): 12.5 µM (≈ 14.6 µg/mL) | MIC (µM) H. pylori (H. pylori): 12.5 µM (≈ 14.6 µg/mL) | MBC (µM) V. alginolyticus (V. alginolyticus): 0.78 µM (≈ 0.91 µg/mL) | MIC (µM) V. alginolyticus (V. alginolyticus): 0.78 µM (≈ 0.91 µg/mL) | MBC (µM) S. enterica (S. enterica): 12.5 µM (≈ 14.6 µg/mL) | MIC (µM) S. enterica (S. enterica): 12.5 µM (≈ 14.6 µg/mL) | MIC (µM) A.baumani (A.baumani): 100 µM (≈ 117 µg/mL) | CC50 at 48 h [2, 3]: 867 µM | CC50 at 48 h [2, 4]: 814 µM | CC50 at 48 h [2, 5]: 783 µM | MBC (µM) P. aeruginosa FQR (P. aeruginosa FQR): 25 µM (≈ 29.2 µg/mL) | MIC (µM) P. aeruginosa FQR (P. aeruginosa FQR): 3.12 to 6.25 µM | MBC (µM) S. flexneri (S. flexneri): 6.25 µM (≈ 7.29 µg/mL) | MIC (µM) S. flexneri (S. flexneri): 3.12 to 6.25 µM | MBC (µM) L. lactis (L. lactis): 1.56 µM (≈ 1.82 µg/mL) | MIC (µM) L. lactis (L. lactis): 0.78 µM (≈ 0.91 µg/mL)

LKAIKKLL-NH2 [L2L9*]
MIC (µM) E. coli (E. coli): 100 µM | MIC (µM) P. aeruginosa (P. aeruginosa): 25 µM

CC[C@H](C)[C@H](NC(=O)CN)C(=O)NCC(=O)N[C@@H](C)C(=O)N[C@H](C(=O)N[C@@H](CC(C)C)C(=O)N[C@@H](CCCCN)C(=O)N[C@H](C(=O)N[C@@H](CC(C)C)C(=O)N[C@H](C(=O)N[C@H](C(=O)NCC(=O)N[C@@H](CC(C)C)C(=O)N1CCC[C@H]1C(=O)N[C@@H](C)C(=O)N[C@@H](CC(C)C)C(=O)N[C@H](C(=O)N[C@@H](CO)C(=O)N[C@@H](Cc1c[nH]c2ccccc12)C(=O)N[C@H](C(=O)N[C@@H](CCCCN)C(=O)N[C@@H](CCCNC(=N)N)C(=O)N[C@@H](CCCCN)C(=O)N[C@@H](CCCNC(=N)N)C(=O)N[C@@H](CCC(N)=O)C(=O)N[C@@H](CCC(N)=O)C(N)=O)[C@@H](C)CC)[C@@H](C)CC)[C@@H](C)O)[C@@H](C)O)C(C)C)C(C)C [Melittine, Melittin, reference compound]
MIC against B. subtilis (B. subtilis): 1.56 µM (≈ 4.44 µg/mL)

KLLGLILI-NH2 [K1I8]
MIC (µM) E. coli (E. coli): 50 µM | MIC (µM) P. aeruginosa (P. aeruginosa; Table 3, n=4): / (« / » means MIC > 100µM) | MIC (µM) S. aureus (S. aureus): 25 µM

LSAILGLLK-NH2 [Peptides L2K10]
MIC (µM) B. subtilis (B. subtilis): 100 µM

ILKAIKK-NH2 [I1K7*, ILKAIKK]
MIC (µM) E. coli (E. coli): 100 µM | MIC (µM) P. aeruginosa (P. aeruginosa): 100 µM | MIC (µM) S. aureus (S. aureus; Table 4, n=4): / (« / » means MIC > 100µM) | MIC (µM) A.baumani (A.baumani): 100 µM

Ac-IKAIKKLLKN-NH2 [Ac I1N10*]
MIC (µM) E. coli (E. coli): 100 µM | MIC (µM) P. aeruginosa (P. aeruginosa): 50 µM | MIC (µM) A.baumani (A.baumani): >100 µM

ILKAIKKLLKN-NH2 [I1N11]
MBC (µM) C. farmeri (C. farmeri): 12.5 µM | MIC (µM) C. farmeri (C. farmeri): 12.5 µM | MBC (µM) B. subtilis (Nisin-resistant) [1]: 12.5 µM | MIC (µM) B. subtilis (Nisin-resistant) [1]: 12.5 µM | MBC (µM) P. aeruginosa 01 (P. aeruginosa 01): 50 µM | MIC (µM) P. aeruginosa 01 (P. aeruginosa 01): 25 µM | MIC (µM) M. smegmatis (M. smegmatis): 25 µM | MBC (µM) E. coli EHEC K88 (E. coli EHEC K88): >100 µM | MIC (µM) E. coli EHEC K88 (E. coli EHEC K88): 100 µM | MBC (µM) P. aeruginosa (P. aeruginosa): 6.25 µM | MIC (µM) P. aeruginosa (P. aeruginosa): 6.25 µM | MIC PA (P. aeruginosa): 6.25 µM | MBC (µM) A. gandavensis (A. gandavensis): 3.12 µM | MIC (µM) A. gandavensis (A. gandavensis): 3.12 µM | MBC (µM) C. rodentium (C. rodentium): 50 µM | MIC (µM) C. rodentium (C. rodentium): 50 µM | MBC (µM) H. pylori (H. pylori): 100 µM | MIC (µM) H. pylori (H. pylori): 100 µM | MBC (µM) V. alginolyticus (V. alginolyticus): 0.78 µM | MIC (µM) V. alginolyticus (V. alginolyticus): 0.78 µM | MBC (µM) S. enterica (S. enterica): 50 µM | MIC (µM) S. enterica (S. enterica): 100 µM | CC50 at 48 h [2, 3]: 821 µM | CC50 at 48 h [2, 4]: 826 µM | CC50 at 48 h [2, 5]: 892 µM | MBC (µM) P. aeruginosa FQR (P. aeruginosa FQR): 100 µM | MIC (µM) P. aeruginosa FQR (P. aeruginosa FQR): 25 µM | MBC (µM) S. flexneri (S. flexneri): 50 µM | MIC (µM) S. flexneri (S. flexneri): 50 µM | MBC (µM) L. lactis (L. lactis): 3.12 µM | MIC (µM) L. lactis (L. lactis): 1.5 µM

CC[C@@H](C)[C@@H](N)C(=O)N[C@H](CC(C)C)C(=O)N[C@H](CO)C(=O)N[C@H](C)C(=O)N[C@@H](C(=O)N[C@H](CC(C)C)C(=O)NCC(=O)N[C@H](CC(C)C)C(=O)N[C@H](CC(C)C)C(=O)N[C@H](CCCCN)C(=O)N[C@H](CC(N)=O)C(=O)N[C@H](CC(C)C)C(N)=O)[C@H](C)CC [(i1I12)enantio, ilsailgllknl] (H-[dI][dL][dS][dA][dI][dL]G[dL][dL][dK][dN][dL]-NH2)
MIC (µM) B. subtilis (B. subtilis): 3.13 µM (≈ 3.96 µg/mL) | MIC (µM) E. coli (E. coli): 100 µM (≈ 127 µg/mL) | MIC (µM) P. aeruginosa (P. aeruginosa): 100 µM (≈ 127 µg/mL) | MIC (µM) S. aureus (S. aureus): 6.25 µM (≈ 7.92 µg/mL)

LNKLLGLIASLI-NH2 [L12I1]
MIC (µM) P. aeruginosa (P. aeruginosa): 50 µM
